We go through one compound from patent US20030109567A1, “Novel angiogenesis inhibitor” (RIKEN, priority 2001, published 2003).

The structures appear in SMILES notation.

A short description of this data set: Solubility (physicochemical properties). On the procedure: The syrup was dissolved in chloroform 10 ml and applied to a silica gel column charged with chloroform (4 cm diameter, 60 cm length). Initially, elution was performed with chloroform 500 ml, then with each 500 ml of a chloroform/methanol solution having a successively changed mixing ratio (100:0, 100:2, 50:1, 20:1, 10:1, 5:1, 1:1). The compound of the present invention, RKB-3134A, was eluted in a fraction with the chloroform/methanol solution (50:1). The fraction was concentrated under reduced pressure to give a brown syrup 1.4 g. Then, the brown syrup 1.4 g was dissolved in a methanol/acetonitrile solution (1:1, 14 ml) and made into aliquots, and purified by high performance liquid chromatography (acetonitrile : water=2:8→acetonitrile : water=1:1; linear gradient (30 minutes), flow rate 9.0 ml/min) using a reverse phase ODS column (2 cm diameter, 25 cm length, PEGASIL ODS, Senshu Kagaku Co.) to give RKB-3134A. Recrystallization was further carried out from a mixed solvent of hexane/ethyl acetate/methanol to give a pure RKB-3134A (90 mg) as pale yellow powder. Physicochemical properties of RKB-3134A are shown below.
Insoluble in n-hexane or water.

Turning to `CC/C=C/C=C/C1=C(C)C(=O)C2(O1)C(=O)NC(O)(Cc1ccccc1)C2O` (centres unmarked) [RKB-3134A], the “Solubility in methanol, acetone, or dimethyl sulfoxide” value (solvent: methanol, acetone, or dimethyl sulfoxide) is listed as “easily soluble”. The “Solubility in n-hexane or water” value (solvent: n-hexane or water) is given as “Insoluble”.
